From ChEMBL document CHEMBL3098038, “Verrulactone C with an unprecedented dispiro skeleton, a new inhibitor of Staphylococcus aureus enoyl-ACP reductase, from Penicillium verruculosum F375” (Bioorg Med Chem Lett, 2014)
pIC50: −log10 of the molar value. Converted amounts (≈) assume the structure as drawn. The source made the active and inactive calls. No cut-off for these calls is given here.

Key:
[1] = system: Staphylococcus aureus; experiment: Antibacterial activity against Staphylococcus aureus RN4220; type: functional
[2] = system: Staphylococcus aureus; experiment: Antibacterial activity against methicillin-resistant Staphylococcus aureus CCARM 3167; type: functional
[3] = system: Bacillus cereus; experiment: Antibacterial activity against Bacillus cereus KCTC 1661; type: functional
[4] = system: Staphylococcus aureus; experiment: Antibacterial activity against quinolone-resistant Staphylococcus aureus CCARM 3505; type: functional
[5] = (§1) Inhibition of Staphylococcus aureus FabI-mediated trans-2-octenoyl N-acetylcysteamine reduction assessed as NADPH level by ELISA
[6] = system: Staphylococcus aureus; experiment: Inhibition of Staphylococcus aureus FabG using acetoacetyl-CoA as substrate assessed as NADPH level at 300 uM by ELISA
[7] = system: Staphylococcus aureus; experiment: as §1

Compound | MIC [1] [µg/mL] | MIC [2] [µg/mL] | MIC [3] [µg/mL] | MIC [4] [µg/mL] | pIC50 [5] | inhibition [6] | inhibition [7]
COc1cc(O)c2c(=O)oc3c(-c4c(O)c(O)cc5oc(=O)c6c(O)cc(OC)cc6c45)c(O)c(O)cc3c2c1 [VERRULACTONE B] | 8 (≈ 14.6 µM) | 8 (≈ 14.6 µM) | 8 (≈ 14.6 µM) | 8 (≈ 14.6 µM) | 5.85 |  | 
COc1cc(O)c2c(=O)oc3cc(O)c(O)cc3c2c1 | 8 (≈ 29.2 µM) | 8 (≈ 29.2 µM) | 8 (≈ 29.2 µM) | 8 (≈ 29.2 µM) | 4.07 | inactive | Dose-dependent effect
Oc1cc(Cl)ccc1Oc1ccc(Cl)cc1Cl [TRICLOSAN] | 0.01 (≈ 0.0345 µM) | 0.01 (≈ 0.0345 µM) | 0.01 (≈ 0.0345 µM) | 0.01 (≈ 0.0345 µM) |  |  | 
COc1cc(O)c2c(c1)[C@@]1(OC2=O)C(C)=CC(=O)[C@]12C(=O)c1c(O)c(O)cc3oc(=O)c4c(O)cc(OC)c2c4c13 (relative stereo) | 32 (≈ 57.3 µM) | 32 (≈ 57.3 µM) | 32 (≈ 57.3 µM) | 32 (≈ 57.3 µM) | 4.79 | inactive | Dose-dependent effect
COc1cc(O)c2c(=O)oc3cc(O)c(O)c(-c4c(O)c(O)cc5oc(=O)c6c(O)cc(OC)cc6c45)c3c2c1 [VERRULACTONE A] | 8 (≈ 14.6 µM) | 8 (≈ 14.6 µM) | 8 (≈ 14.6 µM) | 8 (≈ 14.6 µM) | 6.04 |  | 
